# From patent US20250136614A1, “2,7-SUBSTITUTED PYRROLO[2,1-F][1,2,4]TRIAZINE COMPOUND HAVING PROTEIN KINASE INHIBITORY ACTIVITY” (Magicbullettherapeutics Co., Ltd., priority 2021, published 2025)
# Where a chain is given by its changes, count along the chain named.
# Legend:
# Assay in all cases: Ba/F3 cell growth inhibition (CellTiter-Glo, 72 hours)
# Format in all cases: cell-based
# Ba/F3 FLT3 (ITD) = target: T1, Ba/F3 FLT3 (ITD) (Homo sapiens, UniProt P36888, cells depend on it, form not given); settings: read-out: Ba/F3 GI50s (μM) FLT3 (ITD)
# T1 sequence (P36888 1-993): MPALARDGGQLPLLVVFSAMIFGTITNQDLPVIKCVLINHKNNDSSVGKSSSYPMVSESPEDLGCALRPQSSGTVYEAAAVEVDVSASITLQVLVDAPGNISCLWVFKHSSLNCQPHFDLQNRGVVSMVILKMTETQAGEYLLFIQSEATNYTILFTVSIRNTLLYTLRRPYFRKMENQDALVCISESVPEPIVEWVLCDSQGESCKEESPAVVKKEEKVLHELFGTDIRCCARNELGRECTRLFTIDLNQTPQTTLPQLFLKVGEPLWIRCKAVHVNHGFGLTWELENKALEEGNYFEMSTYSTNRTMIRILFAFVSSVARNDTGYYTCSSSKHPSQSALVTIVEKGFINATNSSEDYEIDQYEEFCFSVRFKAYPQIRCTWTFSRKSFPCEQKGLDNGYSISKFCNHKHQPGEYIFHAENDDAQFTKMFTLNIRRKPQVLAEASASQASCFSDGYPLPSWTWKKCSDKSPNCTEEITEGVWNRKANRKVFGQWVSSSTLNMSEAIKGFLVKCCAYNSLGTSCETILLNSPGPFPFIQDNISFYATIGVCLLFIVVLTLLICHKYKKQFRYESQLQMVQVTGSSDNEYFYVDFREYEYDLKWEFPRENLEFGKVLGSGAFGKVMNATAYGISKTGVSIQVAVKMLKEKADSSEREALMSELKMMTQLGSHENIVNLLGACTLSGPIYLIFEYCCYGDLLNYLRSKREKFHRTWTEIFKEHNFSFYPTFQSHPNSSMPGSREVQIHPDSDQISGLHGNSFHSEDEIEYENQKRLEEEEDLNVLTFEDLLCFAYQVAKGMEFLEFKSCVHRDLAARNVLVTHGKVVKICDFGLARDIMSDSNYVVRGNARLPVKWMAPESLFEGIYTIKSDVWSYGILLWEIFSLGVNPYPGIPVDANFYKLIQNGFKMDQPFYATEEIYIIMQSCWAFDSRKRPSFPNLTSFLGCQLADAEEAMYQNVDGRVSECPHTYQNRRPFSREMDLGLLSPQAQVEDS
# Procedure: (§1) Seeding 3000 cells per well in a 96-well plate. After cell stabilization, treat the cells with compounds diluted in […] at a ⅓ serial dilution and culture for 72 hours. Following treatment with CellTiter-Glo, luminescence is produced only in the presence of ATP, as luciferase degrades luciferin. Luminescence values were measured using Envision (PerkinElmer). Based on the measured luminescence values, the concentration of compounds causing cell death was calculated to determine the GI50 value.
# (§2) The activity values were categorized into three levels. • A: IC50<1 μM • B: 1 μM≤IC50<10 μM, • C: IC50≥10 μM
# Ba/F3 FLT3 (ITD/D835Y) = target: T2, Ba/F3 FLT3 (ITD/D835Y) (Homo sapiens, UniProt P36888, D835Y, cells depend on it, form not given); settings: read-out: Ba/F3 GI50s (μM) FLT3 (ITD/D835Y)
# T2 sequence (P36888 1-993 D835Y): T1 sequence (P36888 1-993) with D835Y
# Procedure: as §1, §2
# Ba/F3 parental = settings: Mus musculus, BaF3, Ba/F3 parental cells, read-out: Ba/F3 GI50s (μM) parental
# Procedure: as §1, §2
Structure (SMILES),GI50 (Ba/F3 FLT3 (ITD)) [µM],GI50 (Ba/F3 FLT3 (ITD/D835Y)) [µM],IC50 (Ba/F3 parental) [µM]
"O=C1COCCOc2ccc(cc2)-c2ccc3cnc(nn23)Nc2ccc(cc2)OCCCN1 [Example 28, (Z)-5,12,15-trioxa-3,9-diaza-2(7,2)-pyrrolo[2,1-f][1,2,4]triazina-1,4(1,4)-dibenzenacyclopentadecaphan-10-one]",< 1,< 1,< 1
"O=C1CCCCCCOc2ccc(cc2)-c2ccc3cnc(nn23)Nc2ccc(cc2)OCCCN1 [Example 29, (Z)-5,17-dioxa-3,9-diaza-2(7,2)-pyrrolo[2,1-f][1,2,4]triazina-1,4(1,4)-dibenzenacycloheptadecaphan-10-one]",< 1,1 to 10,≥ 10
"c1cc2ccc1Nc1ncc3ccc(n3n1)-c1ccc(cc1)OCCNCCCO2 [Example 30, (Z)-5,12-dioxa-3,9-diaza-2(7,2)-pyrrolo[2,1-f][1,2,4]triazina-1,4(1,4)-dibenzenacyclododecaphane]",< 1,< 1,≥ 10
"COc1cc2ccc1Nc1ncc3ccc(n3n1)-c1ccc(cc1)OCCOCC(=O)NCCCO2 [Example 34, (Z)-42-methoxy-5,12,15-trioxa-3,9-diaza-2(7,2)-pyrrolo[2,1-f][1,2,4]triazina-1,4(1,4)-dibenzenacyclopentadecaphan-10-one]",1 to 10,1 to 10,≥ 10
"O=C1COCCOc2ccc(cc2)-c2ccc3cnc(nn23)Nc2cnn(c2)CCCN1 [Example 35, (2^1Z,4^4E)-4^1H-11,14-dioxa-3,8-diaza-2(7,2)-pyrrolo[2,1-f1][1,2,4]triazina-4(4,1)-pyrazola-1(1,4)-benzenacyclotetradecaphan-9-one]",< 1,< 1,1 to 10
"O=C1CCCCOc2ccc(cc2)-c2ccc3cnc(nn23)Nc2cnn(c2)CCCN1 [Example 36, (2^1Z,4^4E)-4^1H-14-oxa-3,8-diaza-2(7,2)-pyrrolo[2,1-f][1,2,4]triazina-4(4,1)-pyrazola-1(1,4)-benzenacyclotetradecaphan-9-one]",< 1,< 1,1 to 10
"O=C1CCCCCCOc2ccc(cc2)-c2ccc3cnc(nn23)Nc2cnn(c2)CCCN1 [Example 37, (2^1Z,4^4E)-4^1H-16-oxa-3,8-diaza-2(7,2)-pyrrolo[2,1-f1][1,2,4]triazina-4(4,1)-pyrazola-1(1,4)-benzenacyclohexadecaphan-9-one]",< 1,< 1,≥ 10
"O=C1CCCCOc2ccc(cc2)-c2ccc3cnc(nn23)Nc2ccc(cc2)OCCCN1 [Example 38, (Z)-5,15-dioxa-3,9-diaza-2(7,2)-pyrrolo[2,1-f][1,2,4]triazina-1,4(1,4)-dibenzenacyclopentadecaphan-10-one]",< 1,< 1,≥ 10
CS(=O)(=O)Nc1cccc(-c2ccc3cnc(Nc4ccc(N5CCN(CCCCCOc6cccc7c6C(=O)N(C6CCC(=O)NC6=O)C7=O)CC5)cc4)nn23)c1 (stereo not drawn) [Example 39],≥ 10,≥ 10,≥ 10
CS(=O)(=O)Nc1cccc(-c2ccc3cnc(Nc4ccc(N5CCN(CCCOc6cccc7c6C(=O)N(C6CCC(=O)NC6=O)C7=O)CC5)cc4)nn23)c1 (stereo not drawn) [Example 40],< 1,< 1,1 to 10
CS(=O)(=O)Nc1cccc(-c2ccc3cnc(Nc4ccc(N5CCN(CCCCCCCOc6cccc7c6C(=O)N(C6CCC(=O)NC6=O)C7=O)CC5)cc4)nn23)c1 (stereo not drawn) [Example 41],< 1,1 to 10,1 to 10
CS(=O)(=O)Nc1cccc(-c2ccc3cnc(Nc4ccc(N5CCN(CCCCCCCCCCCOc6cccc7c6C(=O)N(C6CCC(=O)NC6=O)C7=O)CC5)cc4)nn23)c1 (stereo not drawn) [Example 42],< 1,1 to 10,1 to 10
"Cc1ncsc1-c1ccc(CNC(=O)[C@@H]2C[C@@H](O)CN2C(=O)[C@@H](NC(=O)COCCN2CCN(c3ccc(Nc4ncc5ccc(-c6cccc(NS(C)(=O)=O)c6)n5n4)cc3)CC2)C(C)(C)C)cc1 [Example 83, (2S,4R)-1-((S)-3,3-dimethyl-2-(2-(2-(4-(4-((7-(3-(methanesulfonamido)phenyl)pyrrolo[2,1-f][1,2,4]triazin-2-yl)amino)phenyl)piperazin-1-yl)ethoxy)acetaamino)butanoyl)-4-hydroxy-N-(4-(4-methylthiazol-5-yl)benzyl)pyrrolidin-2-carboxamide]",< 1,< 1,1 to 10
"Cc1ncsc1-c1ccc(CNC(=O)[C@@H]2C[C@@H](O)CN2C(=O)[C@@H](NC(=O)CCOCCOCCN2CCN(c3ccc(Nc4ncc5ccc(-c6cccc(NS(C)(=O)=O)c6)n5n4)cc3)CC2)C(C)(C)C)cc1 [Example 84, (2S,4R)-1-((S)-3,3-dimethyl-2-(3-(2-(2-(4-(4-((7-(3-(methanesulfonamido)phenyl)pyrrolo[2,1-f][1,2,4]triazin-2-yl)amino)phenyl)piperazin-1-yl)ethoxy)ethoxy)propanamido)butanoyl)-4-hydroxy-N-(4-(4-methylthiazol-5-yl)benzyl)pyrrolidin-2-carboxamide]",1 to 10,< 1,1 to 10
